Assay: gradient 5% acetonitrile 3 min, to 50% in 2 min, to 85% in 15 min, held 3 min, 100 µL/min
Conditions: column: Zorbax Extend-C18 2.1 x 50 mm; eluents: water / acetonitrile, 0.1% formic acid
Outline: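 Pure standards were run in mixtures of ~100 molecules by HPLC coupled to a quadrupole time-of-flight mass spectrometer. The column was a Zorbax Extend-C18 (2.1 × 50 mm, 1.8 μm) at 100 μL/min, with water and acetonitrile each containing 0.1% formic acid, in positive and negative ionization mode. Dead and dwell volumes were 40 μL and 900 μL. Retention time was taken from computationally picked adduct peaks, each manually inspected, with data collected over 3 months.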

SMILES	RP-LC retention time
Cc1cc(C)cc(-n2c(CN3CCN(C(=O)Nc4ccc5c(c4)OCO5)CC3)nc3cccnc32)c1	676 s
Cc1cccc(-c2noc(Cn3ccn(-c4ccccc4)c(=O)c3=O)n2)c1	838 s
CCOC(=O)c1noc2nc(C)nc(NCC3CCN(Cc4cccc(Cl)c4)CC3)c12	696 s
Cn1ncc2c(N3CCSCC3)nc(C(=O)NCc3cccnc3)nc21	570 s
O=C(Nc1ccccc1F)C1CCN(c2cc(N3CCCCC3)ncn2)CC1	689 s
COC(=O)c1ccccc1Nc1c(-c2ccc(OC)c(OC)c2)nc2cnccn12	732 s
O=C(NCc1ccsc1)C(=O)NCc1ccccc1Cl	842 s
COc1ccc(CC(=O)N2CCn3c(C)nnc3C2)cc1OC	579 s
Cc1ccc(-c2c(N3CCN(c4ccccn4)CC3)c(=O)c2=O)cc1	660 s
CN(C)C(=O)c1ccc2c(c1)N(CC(=O)NCCCN1CCCC1=O)C(=O)C1CCCCN21 (stereo not drawn)	619 s
CCN1CCN(c2ccc(-c3nc(-c4cccc(C)c4)no3)cn2)CC1	734 s
COc1ccc(-n2ncc3c(=O)n(Cc4nc(-c5ccccc5C)no4)cnc32)cc1	1060 s
CC(C)Cn1cc(CCNS(=O)(=O)c2ccc(Cl)cc2)c2cccnc21	993 s
Cc1nn(C(C)C(=O)NCCCN(C)Cc2ccccc2)c(=O)c2c(C)n(-c3ccccc3)nc12 (stereo not drawn)	687 s
Cc1cccc(-c2noc(-c3ccc(=O)n(Cc4cccnc4)c3)n2)c1	747 s
CN(C)c1cc(C(=O)NC2CC2)c2cc(F)ccc2n1	722 s
CC(NC(=O)c1ccco1)c1nc(-c2ccc3ncn(C)c3c2)no1 (stereo not drawn)	599 s
COc1ccc(-c2nnc(SCc3ccc(C#N)cc3)o2)cc1	948 s
COc1cccc(Cc2nc(Cc3nc(-c4ccccc4)oc3C)no2)c1	1090 s
CCOc1ccc(/C=C/C(=O)Nc2nc(-c3ccc4c(c3)NC(=O)C(C)O4)cs2)cc1OC (stereo not drawn)	927 s

SMILES	RP-LC retention time
O=C(Cc1nnc2cc(-c3nc(C4CC4)no3)ccn12)NCC1CC1	820 s
O=C(Cn1nc2c(Oc3cccc(F)c3)nccn2c1=O)Nc1ccc(F)cc1F	835 s
CCCCS(=O)(=O)c1cc2c(cc1NC(=O)c1c(F)cccc1F)n(C)c(=O)n2C	800 s
COCCOC1CN(C2CCN(C(=O)c3ccc(C)s3)CC2)C12CCCCC2 (stereo not drawn)	656 s
COc1ccc(NC(=O)C2CCCN(c3cnc4nccnc4c3)C2)c(C)c1 (stereo not drawn)	693 s
Cc1ccc(NS(=O)(=O)c2ccc(-c3nnc(C4CCC4)o3)o2)c(F)c1	925 s
CCC(C)n1c(=O)c2ccccc2n(Cc2nc(-c3ccccc3Cl)no2)c1=O (stereo not drawn)	1170 s
NC(=O)c1ccc(Oc2ccc(C(N)=O)cc2)cc1	654 s
CC(NC(=O)Cn1ncc2c(N3CCN(c4ccccn4)CC3)ncnc21)c1ccccc1 (stereo not drawn)	616 s
CCOC(=O)c1ccc2nc(C(F)(F)F)nc(NCCCN3CCCC3=O)c2c1	876 s
Cc1c(CNCCCN2CCCC2=O)c(C(=O)O)c(C)n1Cc1cccc(Cl)c1	665 s
CCOc1ccccc1CNC(=O)CCc1nnc2c3cc(-c4ccc(OC)cc4)nn3ccn12	797 s
CC(C)c1ccc(CNC(=O)C2CCc3nc(N4CCCC4)ncc3C2)cc1 (stereo not drawn)	648 s
CN1CCN(CCCNC(=O)C2CCN(c3nc4cccnc4s3)CC2)CC1	558 s
COc1ccc(NC(=O)C2CCN(c3cc(N4CCCCC4)ncn3)CC2)c(OC)c1	694 s
Cc1ccc(C)c(C(=O)Nc2ccc3c(c2)Sc2ncccc2C(=O)N3C)c1	888 s
CCc1cc(N2CCN(C(=O)c3ccc4c(c3)OCO4)CC2)nc2nncn12	575 s
NCC(O)COCC1COc2ccccc2O1 (stereo not drawn)	549 s
CCc1cc2c(cc1N1CCC(N3CCOCC3)CC1)C(C)(C)c1[nH]c3cc(C#N)ccc3c1C2=O	740 s
O=c1ccc(N2CCCC(NS(=O)(=O)c3ccc(F)c(F)c3)C2)nn1CC1CC1 (stereo not drawn)	851 s

SMILES	RP-LC retention time
CCc1nccn1Cc1nc(-c2cccc(Br)c2)no1	685 s
COc1ccc(OCc2noc(CNS(=O)(=O)CCN3C(=O)CCCC3=O)n2)cc1	693 s
Cc1nnc(N2CCCC(C(=O)NCCCN3CCCC3)C2)c2nn(-c3ccccc3)c(C)c12 (stereo not drawn)	558 s
CC(C)(C)c1csc(-c2csc(S(=O)(=O)N3CCCCCC3)c2)n1	1340 s
Cc1nc(C)c(C(=O)N2CC(N(CC(C)C)C3CCN(C)CC3)C2)s1	567 s
CCC(C)(C)C(=O)N1CCC2(CCc3nn(Cc4ccccc4)c(=O)n3CC2)CC1	811 s
CCOC(=O)N1CCN(C(=O)CSc2nnc(COc3ccc(Cl)cc3)o2)CC1	799 s
CCn1cc(-c2nc(C(=O)Nc3cc(F)ccc3Cl)cs2)c2cccnc21	1330 s
COc1cc(OC)c(NC(=O)CN2C(=O)NC(c3ccc(Cl)cc3)C3=C2COC3=O)cc1Cl (stereo not drawn)	858 s
COCCc1nncn1C1CCN(C(=O)c2cc(F)ccc2F)CC1	618 s
COc1ccc(-c2noc(C3(NC(=O)COc4ccccc4)CCCCC3)n2)cc1	1170 s
CCCn1cc(C(=O)NCCCN(C)C)c(S(=O)(=O)N2CCN(c3cccc(Cl)c3)CC2)n1	758 s
O=S(=O)(c1ccc2nc(N3CCN(c4cccc(Cl)c4)CC3)ccc2c1)N1CCCCC1	1240 s
COc1ccc(C2(C(=O)N3CCC4(CC3)N(CC3CC3)C(=O)CS4=O)CC2)cc1 (stereo not drawn)	677 s
CCc1nc(-c2ccc3c(c2)CCN3C(=O)Cc2ccc(OC)c(OC)c2)no1	923 s
COc1cc(Cl)ccc1C(=O)N1CCN(c2ccc(-c3nc(C)c(C)s3)cn2)CC1	950 s
CCn1cc(CCN2CCN(S(=O)(=O)c3ccc4c(c3)CCC4)CC2)c2cccnc21	702 s
CCN(CC)Cc1cc2[nH]c3c4ccc(Cl)cc4ncc3c2cc1OC	747 s
CC(C)c1cc(N2CCN(C(=O)Cc3cccs3)CC2)nc2nncn12	613 s

Now from value to molecule:

RP-LC retention time	SMILES
782 s	Cc1[nH]c2ccccc2c1C(=O)C(=O)Nc1ccc2c(c1)OCO2
912 s	CCc1ccc(NC(=O)C2CCN(S(C)(=O)=O)c3ccccc3O2)cc1 (stereo not drawn)
691 s	CC(C)NC(=O)c1ccc2c(c1)N(S(C)(=O)=O)CC2
679 s	COC(=O)c1ccc(NC(=O)N2CCOc3ccc(C)cc32)cc1
1140 s	Cc1ccccc1N1CCN(S(=O)(=O)c2cc(-c3nnc(C4CCC4)o3)co2)CC1
861 s	CCOC(=O)c1cn(Cc2ccc(C)cc2)c2nc(C)ccc2c1=O
619 s	CN1CCN(C(=O)c2cc(-c3ccccc3)cn2C)CC1
626 s	Cc1nn(CC(=O)N2CCN(C)CC2)c(=O)c2cc(-c3ccccc3)nn12
709 s	Cc1ccccc1C(=O)CC1(O)C(=O)Nc2ccccc21 (stereo not drawn)
1260 s	CCCOc1nc2ccccc2nc1N1CCCC(C(=O)Nc2cccc(OC)c2)C1 (stereo not drawn)
1020 s	COc1ccccc1CNC(=O)c1nnc(-c2ccc(S(=O)(=O)N3CCC(C)CC3)cc2)o1
959 s	CCOc1cccc(C2c3[nH]c4ccccc4c3CCN2C(=O)c2ccncc2)c1 (stereo not drawn)
955 s	CN(C)S(=O)(=O)c1ccc2c(c1)N(CC(=O)NCCCc1ccccc1)C(=O)C1CCCCN21 (stereo not drawn)
861 s	Cc1cc(OCC(=O)Nc2c(C)cccc2C)nc(N2CCN(c3ccccc3)CC2)n1
692 s	COc1cccc(NC(=O)N(C)CCc2noc(COc3ccccc3F)n2)c1
747 s	O=C([C@@H]1C[C@H](F)CN1C(=O)NCc1ccc(F)cc1)N1CCc2ccccc2C1
655 s	O=C(Cn1cnc2nc(N3CCC(C(=O)NC4CC4)CC3)sc2c1=O)Nc1ccc(F)cc1
809 s	Cc1cccc(C(=O)Nc2ccc3c(c2)Sc2ncccc2C(=O)N3C)c1
874 s	CCC(=O)N1c2ccc(S(=O)(=O)CCC(=O)NCCc3ccc(C)cc3)cc2CC1C (stereo not drawn)
910 s	COC(=O)C1=CN(c2ccc(F)c(Cl)c2)c2ccccc2S1(=O)=O
931 s	Cc1ccc(CNC(=O)c2ccc3c(c2)N(C)C(=O)c2ccccc2O3)cc1
692 s	CNC(=O)Nc1ccc(C2(C(=O)NC3CCCC3)CCC2)cc1
707 s	CCc1nc2cc3c(cc2n1CC(=O)Nc1ccc(Br)cc1)OCCO3
922 s	O=C(NCCc1ccccc1)N1CCCC1c1nc(-c2ccccc2)no1 (stereo not drawn)
1100 s	CCN1C(=O)COc2ccc(-c3noc(C4CCCN(S(=O)(=O)c5ccc(C)cc5)C4)n3)cc21 (stereo not drawn)
784 s	CCOc1ccc(NC(=O)C2CCN(S(=O)(=O)c3cn(CC)cn3)CC2)cc1
561 s	COC(=O)c1ccc(NC(=O)CN2CC(c3nc(-c4cnccn4)no3)C2)cc1
834 s	Cc1ccc(NC(=O)Cn2nc(C)cc2C(=O)Nc2ccc3c(c2)OCCO3)cc1
750 s	CC(C)(C)C(=O)Nc1ccc2nc(N3CCN(c4ccccc4Cl)CC3)cc(C(=O)O)c2c1

Reference: the METLIN SMRT retention time set (Domingo-Almenara et al. 2019)
